Literature values, collected in US20190090531A1, “TOBACCO FILLING FOR NON-COMBUSTION-TYPE HEATING SMOKING ARTICLE” (JAPAN TOBACCO INC., priority 2016, published 2019).
Read-outs that look alike come from different tables or passages of the source.

[1] = Table 1, in water at normal temperature (25° C.)

Acid dissociation constant pKa1 [1] | Acid dissociation constant pKa1 (Table 2, in water at 25° C.) | Structure (SMILES)
≈5.00 |  | CCCCCCCCCCCCCCCCCCCCCCCCCCCC(=O)O [Octacosanoic acid]
≈5.00 |  | CCCCCCCCCCCCCCCCCCCCC(=O)O [Heneicosanoic acid]
4.13 | 4.13 | O=C1O[C@H]([C@H](O)CO)C(O)=C1O [Isoascorbic acid]
≈5.00 |  | CCCCCCCCCCCCCC(=O)O [Myristic acid]
4.44 |  | CC(=O)CCC(=O)O [Levulinic acid]
≈5.00 |  | CCCCCCCCCCCCCCCC(=O)O [Palmitic acid]
4.76 |  | C/C=C/C=C/C(=O)O [Sorbic acid]
≈5.00 | ≈5.00 | CCCCCCCCCCCCCCCCCCC(=O)O [Nonadecanoic acid]
≈5.00 | ≈5.00 | CCCCCCCCCCCCCCCCCCCCCCCC(=O)O [Lignoceric acid]
2.50 |  | CC(=O)C(=O)O [Pyruvic acid]
≈5.00 |  | CCCCCCCCCCCCCCCCCC(=O)O [Stearic acid]

Structure (SMILES) | Acid dissociation constant pKa1 [1] | Acid dissociation constant pKa1 (Table 2, in water at 25° C.)
CCCCCCCCCCCC(=O)O [Lauric acid] | 5.20 | 
CCCCCCCCCC(=O)O [Decanoic acid] | 4.90 | 
CC/C=C\C/C=C\C/C=C\CCCCCCCC(=O)O [Linolenic acid] | ≈5.00 | 
